Data published in US7259148B2, “Hepatoprotective activity of 2′-p-hydroxybenzoylmussaenosidic acid” (Council of Scientific & Industrial Research, priority 2003, dated 2007).

How the values were obtained:
[1] = test system: CCl4 induced hepatic injury in rats; assay: Hepatoprotective activity (in vivo) against CCl4 induced hepatic injury in rats
Description: 033 and 033 (2) reduced the elevated levels of serum OPT, GOT, ALP, bilirubin, TG and liver homogenate lipid peroxidation and increased the GSH level. […] The same with silymarin was: 58.44, 51:63, 52,26,57.50,41.30,62.05 & 60.15% respectively. (Table-1). [table]

[2] = test system: GalN induced hepatic injury in rats; assay: Hepatoprotective activity (in vivo) against GalN (galactosamine) induced hepatic injury in rats
Description: On treatment of experimental animals with galactosamine (GaIN) induced hepatic damage the hepatoprotective activity observed with 033 and 033 (2) was 59.58 & 50.75, 56.62 & 43.64, 54.28 & 50.11, 57.71 & 57.57, 57.89 & 44.76 percent in serum GPT, GOT, Bilirubin, ALP, and TG respectively and 67.51 & 38.65, 66-56 & 48.10 percent in liver homogenate lipid peroxidation (LP) and GSH respectively. The same with silymarin was 57.38, 55.40, 60.00. 53.54,46.17, 69.59, 67.18 percent respectively (Table-2). Advantages of the present invention over currently used plant based hepatoprotectives: • 1. […] Silymarin is a mixture of three constituents whose relative proportion varies from batch to batch while negundoside is a pure compound. [table]

[3] = rats, CCl4 1 ml/kg p.o., fed p.o. at 48 h, 24 h, 2 h before and 6 h after, 033 400 mg/kg, 033 (2) and silymarin 50 mg/kg, n=6
[4] = rats, GalN 300 mg/kg s.c., fed p.o. at 48 h, 24 h, 2 h before and 6 h after, 033 400 mg/kg, 033 (2) and silymarin 50 mg/kg, n=6

In the case of `C[C@]1(O)CC[C@@H]2C(C(=O)O)=CO[C@@H](O[C@@H]3O[C@H](CO)[C@@H](O)[C@H](O)[C@H]3OC(=O)c3ccc(O)cc3)[C@@H]21` [033 (2), 2′-p-hydroxybenzoylmussaenosidic acid], the “Hepatoprotective activity in words” value ([1]; experimentally induced hepatic damage in rodents, CCl4 as hepatotoxin) is reported as “marked hepatoprotective activity”, the “Hepatic Glutathione (GSH, liver homogenate): mean percent hepatoprotective activity” value [1, 3] is reported as 45.56% and the “Hepatic Lipid peroxidation (liver homogenate): mean percent hepatoprotective activity” value [1, 3] is reported as 45.85%. The “Serum ALP: mean percent hepatoprotective activity” value [1, 3] was 53.95%, the “Serum Bilirubin (mg %): mean percent hepatoprotective activity” value [1, 3] was 66.66% and the “Serum GOT (Units): mean percent hepatoprotective activity” value [1, 3] was 58.05%. For the same compound, the “Serum OPT (Units): mean percent hepatoprotective activity (reduction of elevated GPT)” value [1, 3] was 60.34%, the “Serum Triglycerides (mg %): mean percent hepatoprotective activity” value [1, 3] was 44.19% and the “Hepatoprotective activity in words” value ([2]; experimentally induced hepatic damage with galactosamine (GalN) in rats) was “marked hepatoprotective activity”. For the same compound, the “Hepatic Glutathione (GSH, liver homogenate): mean percent hepatoprotective activity” value [2, 4] was 48.10%, the “Hepatic Lipid peroxidation (LP, liver homogenate): mean percent hepatoprotective activity” value [2, 4] was 38.65% and the “Serum ALP: mean percent hepatoprotective activity” value [2, 4] was 57.57%. For the same compound, the “Serum Bilirubin (mg %): mean percent hepatoprotective activity” value [2, 4] was 50.11%, the “Serum GOT (Units): mean percent hepatoprotective activity” value [2, 4] was 43.64% and the “Serum GPT (Units): mean percent hepatoprotective activity (GPT)” value [2, 4] was 50.75%. The “Serum Triglycerides (mg %): mean percent hepatoprotective activity” value [2, 4] was 44.76%.
